PubChem BioAssay AID463204 (Broad Institute, 2010)
The source made the active and inactive calls.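 The calls were made as follows: active = AC50 no more than ten times the top concentration tested, that is within one log above it; inconclusive = flat curve fit with activity between 30% and 70%, or invalid poor fit; inactive = AC50 beyond ten times the top tested dose.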 Residues, ends and D or L forms follow the SMILES beside them.

Tested on: S. cerevisiae Mot1-301 ts growth rescue, BacTiter-Glo ATP luminescence
Test: restored Mot1-301 yeast growth at 38.5C – whole organism, S. cerevisiae, Mot1-301 ts mutant, luminescence, dose retest, SUMOylation pathway inhibitor project, confirmation (AID 463204);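 also: growth at restrictive 38.5 degrees C of Mot1-301 OY566 strain; actives raise luminescence by restoring growth of the ts mutant at high temperature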

SMILES	AC50
CCOC(=O)C1CCN(C(=O)COc2ccc(S(=O)(=O)N3CCOCC3)cc2C)CC1	> 42 µM (inactive)
Oc1ccc(C2=CSC3=NCCN23)cc1O	> 42 µM (inactive)
CN(c1ccccc1)S(=O)(=O)c1ccc(C(=O)NCC2CCCO2)cc1 (stereo not drawn)	> 21 µM (inactive)
C=CCSC1=C(C#N)C(c2ccc(C(C)C)cc2)CC(=O)N1 (stereo not drawn)	8.36 µM
Cc1nn(-c2ccccc2)c(N)c1N=Nc1cccc(S(=O)(=O)N2CCOCC2)c1	> 42 µM (inactive)
O=C(O)COc1ccc(=O)n(-c2ccccc2)n1	> 42 µM (inactive)
CCOc1ccc(Br)cc1CNCCN1CCOCC1	> 42 µM (inactive)
CC1CCCCN1C(=O)C(Cc1ccccc1)N1C(=O)C2CCCCC2C1=O (stereo not drawn)	32.5 µM
Cc1nn(Cc2ccc(C(=O)Nc3ccccc3C(F)(F)F)o2)c(C)c1Br	> 42 µM (inactive)
COc1cc2c(cc1NC(=O)c1cccnc1)oc1ccccc12	> 42 µM (inactive)
CC1CC(C)(C)N2C(=O)C3(Nc4ccccc4S3)c3cccc1c32 (stereo not drawn)	3.15 µM
COc1cccc(OC)c1C(=O)N1CCN(Cc2ccccc2C)CC1	> 42 µM (inactive)
O=C(NCc1cccnc1)C1CCN(S(=O)(=O)c2cccnc2)CC1	> 42 µM (inactive)
COc1ccc(-n2c3c(cc(C(=O)NCC(=O)c4ccccc4)c2=O)C(=O)CC(C)(C)C3)cc1	> 42 µM (inactive)
CCN(C(=O)COC(=O)c1c(-c2ccccc2)noc1C)c1c(N)n(Cc2ccccc2)c(=O)[nH]c1=O	> 42 µM (inactive)
O=S(=O)(c1ccc(S(=O)(=O)N2CCCC2)cc1)N1CCCCC1	> 42 µM (inactive)
O=S(=O)(Cc1ccccc1)N1CCN(c2ccccc2)CC1	> 42 µM (inactive)
O=C(O)c1ccc(N=C2NC(=O)C(CO)(CO)S2)cc1	> 42 µM (inactive)
CCOC(=O)c1ccc(CNC(=O)Cn2nnc(-c3ccc(C)cc3)n2)o1	> 42 µM (inactive)
COc1ccc(C(=O)CC(=O)C(=O)Nc2ccc(C)c(Cl)c2)cc1	> 42 µM (inactive)
CCOC(=O)N1CCN(C(=O)c2ccc(CS(=O)(=O)c3c(Cl)cccc3Cl)o2)CC1	> 42 µM (inactive)
Cc1cc(C)cc(OCC(=O)Nc2ccc(N3CCN(C(=O)c4ccco4)CC3)cc2)c1	> 42 µM (inactive)
CN1CCCC(n2nc(Cc3ccc(Cl)cc3)c3ccccc3c2=O)CC1 (stereo not drawn)	> 42 µM (inactive)
COc1cc2ccccc2cc1C(=O)Nc1ccc(CN2CCOCC2)cc1	> 42 µM (inactive)
Fc1cccc(NC(=S)N2CCn3cccc3C2c2cccnc2)c1 (stereo not drawn)	> 42 µM (inactive)

SMILES	AC50
CC(=O)NCCc1nc2cc(NC(=O)c3ccc(F)cc3)ccc2n1C	> 42 µM (inactive)
NS(=O)(=O)c1ccc(CCNC(=O)CN2CCN(c3ccc(F)cc3)CC2)cc1	> 42 µM (inactive)
COCCCn1c(=O)c2ccccc2n(Cc2ccccc2C)c1=O	> 42 µM (inactive)
CC(=O)NC(CC(C)C)C(=O)NC(CO)C(=O)NC(CCC(=O)O)C(=O)NC(C)C(=O)NC(CC(C)C)C(N)=O (stereo not drawn) (Ac-LSEAL-NH2; configuration not given here)	> 42 µM (inactive)
CCCCNC(=O)N1CCC(CCC(=O)N(C)Cc2ccccc2)CC1	> 42 µM (inactive)
O=C(Nc1cccc(O)c1)C(Cc1ccccc1)N1C(=O)c2cccc3cccc(c23)C1=O (stereo not drawn)	> 42 µM (inactive)
COc1ccc([N+](=O)[O-])c2c(=O)ccoc12	> 42 µM (inactive)
CCOc1ccc(-c2c(C(=O)N/N=C/c3ccncc3)nnn2-c2nonc2N)cc1	> 42 µM (inactive)
Cc1cc([N+](=O)[O-])ccc1NC(=O)CSc1nccc(=O)[nH]1	> 42 µM (inactive)
CCOc1ccc(OCC)c(NC(=O)C2COc3ccccc3O2)c1 (stereo not drawn)	> 42 µM (inactive)
O=C1CCN(Cc2ccccc2)CCN1CCOc1ccccc1	> 42 µM (inactive)
O=C1c2nccnc2C(=O)N1c1ccc(C(F)(F)F)cc1	> 42 µM (inactive)
Clc1ccc(CSc2nnc(CN3CCOCC3)n2-c2ccccc2)cc1Cl	> 42 µM (inactive)
CS(=O)(=O)N(CC(=O)Nc1ccccc1C(=O)N1CCCC1)c1ccc2c(c1)OCO2	> 42 µM (inactive)
Cc1cc(C)cc(C(=O)NC(CC(N)=O)c2ccc(N3CCC(N4CCCCC4)CC3)c([N+](=O)[O-])c2)c1 (stereo not drawn)	> 42 µM (inactive)
O=C(c1cc2c(ccc3ccccc32)oc1=O)N1CCCC1	> 42 µM (inactive)
O=C(NC1CCc2ccccc21)c1cc(COc2ccc(F)cc2F)on1 (stereo not drawn)	> 42 µM (inactive)
CCOc1ccccc1C(=O)NCc1ccc2c(c1)OCO2	> 42 µM (inactive)
COc1ccc(CN(CC(=O)NCC2CCCO2)C(=O)CCC(=O)Nc2cc(C)on2)cc1 (stereo not drawn)	> 42 µM (inactive)
O=C(/C=C/c1ccc(F)cc1)NCC1(c2ccccc2)CCOCC1	> 42 µM (inactive)
S=C(Nc1ccccc1Cl)N1CCOCC1	> 42 µM (inactive)
O=C(CCN1C(=O)S/C(=C/c2ccccc2)C1=O)Nc1ccc(O)c(C(=O)O)c1	> 42 µM (inactive)
CCN(CC)CCCN(Cc1cc2cc(OC)ccc2[nH]c1=O)C(=O)Nc1ccc(F)cc1	> 42 µM (inactive)
O=S(=O)(O)c1ccc(N=NNc2ccc(Br)cc2)cc1	> 42 µM (inactive)
CCOC(=O)N1CCN(C(=O)c2ccccc2-c2ccccc2)CC1	> 42 µM (inactive)

SMILES	AC50
N#Cc1c(NC(=O)c2ccc([N+](=O)[O-])o2)sc2c1CCC2	40.1 µM
CC1=C(C(=O)OCc2ccccc2)C(c2cccc(F)c2)NC(=O)N1 (stereo not drawn)	> 42 µM (inactive)
C(=N\N1CCN(C2c3ccccc3-c3ccccc32)CC1)/c1ccncc1	13.8 µM
CCOC(=O)CCN(c1ccccc1)S(=O)(=O)c1ccc(-c2ccc(=O)[nH]n2)s1	> 42 µM (inactive)
Cc1ccc(C)c(S(=O)(=O)n2cnc3ccccc32)c1	> 42 µM (inactive)
O=C(Cn1sc2ccccc2c1=O)NC12CC3CC(CC(C3)C1)C2	20.7 µM
COc1cccc(/C=N/NC(=O)CCn2cnc3ccccc32)c1	> 42 µM (inactive)
O=C(CC(c1ccccc1)c1ccccc1O)NCCN1CCOCC1 (stereo not drawn)	> 42 µM (inactive)
COC(=O)CCCC(=O)NCC1(N(C)Cc2ccccc2)Cc2ccccc2C1	> 42 µM (inactive)
CCOC(=O)C1CCN(C(=O)c2ccc3c(c2)NC(=O)/C(=C/c2ccccc2)S3)CC1	> 42 µM (inactive)
O=C(CN1CCc2ccccc21)NN1CC(=O)N(c2ccc(Cl)cc2)CC1=O	> 42 µM (inactive)
C=CCC(NCCCO)c1cccc(OC)c1OC (stereo not drawn)	> 42 µM (inactive)
COc1ccc(N2CCN(CCCNC(=O)C(=O)c3c(C)[nH]c4ccccc34)CC2)cc1	> 21 µM (inactive)
CC(C)NC(=O)c1ccccc1-c1ccccc1	> 42 µM (inactive)
COCC(=O)Nc1c(C(=O)Nc2ccc3c(c2)OCO3)oc2ccccc12	> 42 µM (inactive)
CC(=O)c1ccc(C(=O)N2CCCC(N3CCN(c4ccc(F)cc4)CC3)C2)s1 (stereo not drawn)	> 42 µM (inactive)
COc1cc(/C=N/n2cnnc2)ccc1OCc1ccccc1	> 42 µM (inactive)
COc1ccc(NS(=O)(=O)c2cccc(C(=O)NCCCn3ccnc3)c2)cc1	> 21 µM (inactive)
Cc1cc(NC(=O)CCC(=O)N(c2cccnc2)C(C(=O)NC2CCCC2)c2ccccc2)no1 (stereo not drawn)	> 42 µM (inactive)
COc1ccccc1N(CC(=O)NCC1CCCO1)C(=O)CCC(=O)Nc1cc(C)on1 (stereo not drawn)	> 42 µM (inactive)
CCN1C(=S)N[C@@H](CCc2ccccc2)C(C(=O)OC)=C1C	> 42 µM (inactive)
COC(=O)c1ccccc1NC(NC(=O)c1ccco1)C(=O)c1ccccc1 (stereo not drawn)	> 42 µM (inactive)
O=C1C2C(c3ccccc3)CC=CC2[C@H](c2ccc3ccccc3c2)N1Cc1ccccc1 (stereo partly drawn)	11.3 µM
O=C(CC(c1ccccc1)c1ccccc1)NCCOCc1ccccc1	> 42 µM (inactive)
O=C1C2CCCCN2C(=O)N1CCCCN1CCN(c2ccccc2Oc2ccccc2)CC1 (stereo not drawn)	> 42 µM (inactive)

SMILES	AC50
CC(C)C(NC(=S)Nc1ccccc1)C(=O)O (stereo not drawn)	> 42 µM (inactive)
Cc1ccc(C(C(=O)NCC2CCCO2)N(Cc2ccccc2F)C(=O)Cn2nnc(-c3cccs3)n2)cc1 (stereo not drawn)	> 42 µM (inactive)
COc1ccc(CCNC(=O)Cn2nnc(-c3ccc(N4CCOCC4)cc3)n2)cc1OC	> 42 µM (inactive)
Nc1cc(Cl)ccc1N1CCOCC1	> 42 µM (inactive)
COCCNC(=O)NC(=O)CSc1nc(C)c(C)c(C)n1	> 42 µM (inactive)
COc1ccc(/C=C/C(=O)N2CCC(C(N)=O)CC2)cc1S(=O)(=O)N1CCOCC1	> 42 µM (inactive)
Cc1nc(-c2ccc(Cl)cc2)sc1C1(C)CC(c2c(Cl)cccc2Cl)=NO1 (stereo not drawn)	> 42 µM (inactive)
COc1ccccc1-n1c(O)c(/C=C2\C=Nc3ccccc32)c(=O)[nH]c1=O	> 42 µM (inactive)
C[C@H]1CN=C(Nc2ccccc2)N1CCC1CCCC1	> 42 µM (inactive)
Cn1c(NCc2ccco2)nc2c1c(=O)n(Cc1ccc(Cl)cc1)c(=O)n2C	> 42 µM (inactive)
C=CCNC(=O)NC(=O)COC(=O)CCCSc1nc2ccccc2[nH]1	> 42 µM (inactive)
COC(=O)c1ccc(NC(=O)CCN2CCN(c3ccccc3)CC2)cc1	> 42 µM (inactive)
CC(C)(C)NC(=O)C(c1cccs1)N(Cc1cccs1)C(=O)c1ccc(CN2CCOCC2)o1 (stereo not drawn)	> 42 µM (inactive)
Cc1ccc(NC2CC(=O)N(c3ccc(N4CCCCC4)cc3)C2=O)cc1 (stereo not drawn)	> 21 µM (inactive)
COc1ccc(NC2CC(=O)N(C(C)C)C2=O)cc1 (stereo not drawn)	> 42 µM (inactive)
COC(=O)c1ccc(/C=N/NC(=O)C(=O)NCC2CCCO2)cc1 (stereo not drawn)	> 42 µM (inactive)
Cc1ccc(S(=O)(=O)NCC(=O)OCC(=O)c2ccc(Br)s2)cc1	> 42 µM (inactive)
CC1c2cc3c(cc2CCN1CC(=O)Nc1ccccc1)OCCCO3 (stereo not drawn)	> 42 µM (inactive)
CC1CC(C)(C)N(C(=O)CN2C(=O)CCC2=O)c2ccccc21 (stereo not drawn)	> 42 µM (inactive)
COc1ccccc1OCCSc1nc2ccccc2n1CCC(=O)O	> 42 µM (inactive)
CC(C)NC(=O)CCCc1cn(C)c2ccccc12	> 42 µM (inactive)
O=C(Nc1ccc2oc(-c3ccccc3F)nc2c1)c1ncn[nH]1	> 42 µM (inactive)
OC(c1ccccc1)(C1CCCCC1)C(CN1CCOCC1)c1ccccc1 (stereo not drawn)	13.9 µM
